# ChEMBL document CHEMBL1150243, “Lignan glycosides from Neoalsomitra integrifoliola” (2008)
# Experiment: Antiinflammatory activity against rat polymorphonuclear leucocytes assessed as inhibition of platelet activating factor-induced beta-glucuronidase release
# Type: functional
smiles,measurement,value
C[C@@H]1C(=O)O[C@H]2[C@H](O)[C@@]34[C@H]5C[C@@H](C(C)(C)C)[C@]36[C@@H](OC(=O)[C@@H]6O)O[C@@]4(C(=O)O5)[C@@]12O [GINKOLIDE B],inhibition (INH),78.4%
